How the values were obtained:
Assay type in all cases: functional
Rattus norvegicus [1] = assay: Percent inhibition of 14C]cholesterol absorption into plasma using cholesterol absorption assay in rats at the dose of 100 ug/Kg
Rattus norvegicus [2] = assay: Percent inhibition of 14C]cholesterol absorption into plasma using cholesterol absorption assay in rats at the dose of 30 ug/Kg
Rattus norvegicus [3] = assay: Percent inhibition of 14C]cholesterol absorption into plasma using cholesterol absorption assay in rats at the dose of 300 ug/Kg
Rattus norvegicus [4] = assay: Percent inhibition of 14C]cholesterol absorption into plasma using cholesterol absorption assay in rats at the dose of 186 ug/Kg
Rattus norvegicus [5] = assay: Percent inhibition of 14C]cholesterol absorption into plasma using cholesterol absorption assay in rats at the dose of 56 ug/Kg
Rattus norvegicus [6] = assay: Percent inhibition of 14C]cholesterol absorption into plasma using cholesterol absorption assay in rats at the dose of 10 ug/Kg
Rattus norvegicus [7] = organism: Rattus norvegicus; assay: Compound was tested for cholesterol absorption inhibition in rats by bolus injection 1 mL) via the intestinal catheter into the small intestine, by cholesterol absorption assay; conditions: read-out: ID50 (the source's name)
Rattus norvegicus [8] = assay: Percent inhibition of 14C]cholesterol absorption into plasma using cholesterol absorption assay in rats at the dose of 3 ug/Kg
Rattus norvegicus [9] = assay: Percent inhibition of 14C]cholesterol absorption into plasma using cholesterol absorption assay in rats at the dose of 2000 ug/Kg

SMILES	inhibition in vivo at 0.1 mg/kg (Rattus norvegicus [1]) [%]	inhibition in vivo at 0.03 mg/kg (Rattus norvegicus [2]) [%]	inhibition in vivo at 0.01 mg/kg (Rattus norvegicus [6]) [%]	also measured
Cc1cc(C)n(B(F)F)c1/C=C1/C=CC(CCC(=O)NCC#Cc2ccc(N3C(=O)[C@H](CC[C@H](O)c4ccc(F)cc4)[C@H]3c3ccc(O[C@@H]4O[C@H](C(=O)O)[C@@H](O)[C@H](O)[C@H]4O)cc3)cc2)=N1	80	58	–	inhibition in vivo at 0.3 mg/kg (Rattus norvegicus [3]): 92%
O=C(CCCCCNC(=O)c1ccc(-c2c3ccc(=O)cc-3oc3cc(O)ccc23)c(C(=O)O)c1)NCC#Cc1ccc(N2C(=O)[C@H](CC[C@H](O)c3ccc(F)cc3)[C@H]2c2ccc(O[C@@H]3O[C@H](C(=O)O)[C@@H](O)[C@H](O)[C@H]3O)cc2)cc1	–	85	–	inhibition in vivo at 0.186 mg/kg (Rattus norvegicus [4]): 88%; inhibition in vivo at 0.056 mg/kg (Rattus norvegicus [5]): 79%
O=C(O)[C@H]1O[C@@H](Oc2ccc([C@@H]3[C@@H](CC[C@H](O)c4ccc(F)cc4)C(=O)N3c3ccc(F)cc3)cc2)[C@H](O)[C@@H](O)[C@@H]1O	–	–	91	–
O=C(O)[C@H]1O[C@@H](Oc2ccc([C@@H]3[C@@H](CC[C@H](O)c4ccc(F)cc4)C(=O)N3c3cccc4nsnc34)cc2)[C@H](O)[C@@H](O)[C@@H]1O	85	83	66	–
O=C1[C@H](CC[C@H](O)c2ccc(F)cc2)[C@@H](c2ccc(O)cc2)N1c1ccc(F)cc1 [EZETIMIBE]	–	–	74	ED50 (Rattus norvegicus [7]): 1.6 µg/kg; inhibition in vivo at 0.003 mg/kg (Rattus norvegicus [8]): 63%
COc1ccc([C@@H]2[C@@H](CCCc3ccccc3)C(=O)N2c2ccc(OC)cc2)cc1 [SCH-48461]	–	–	–	inhibition in vivo at 2 mg/kg (Rattus norvegicus [9]): 95%
